Laboratory results published in patent publication US20120053235A1, “Dihydromyricetin as an IKK-beta inhibitor used for treatment of arthritis, cancer and autoimmune conditions, and other diseases or disorders” (HONG KONG BAPTIST UNIVERSITY, priority 2010, published 2012).

Key:
[1] = test system: isolated human T lymphocytes; assay: T cells proliferation assay (BrdU ELISA); format: cell-based; conditions: stimulated with anti-OKT 3/anti-CD28 or PMA/ionomycin, 72 hours; FIGS. 2A and 2B
Procedure: The isolated human T lymphocytes (1×10^5 cells/well) were stimulated with anti-OKT 3/anti-CD28 antibodies or PMA/ionomycin (P/I) in the presence or absence of DMY for 72 hours.
5-bromo-2′-deoxy-uridine (BrdU, Roche) was added to the cells at the 14th hour before the end of stimulation and it could be incorporated into the DNA of the growing cells during the labeling period. The amount of BrdU incorporated into DNA was quantified as an indicator of cell proliferation. BrdU was determined by ELISA according to manufacturer's instructions.

[2] = test system: IL-2 production in human T-cell; assay: IL-2 ELISA of culture supernatants of stimulated T cells; format: cell-based; design: dose or concentration left out as unconfirmed; conditions: DMY; P/I or anti-OKT-3/anti-CD28 for 48 hours; FIGS. 3A and 3B
Procedure: The cells (1×10^5/well) were incubated in the presence or absence of DMY for 2 hours at the indicated concentrations, and then the cells were stimulated with P/I or anti-OKT-3/anti-CD28 for 48 hours. The cell-free culture supernatants were collected, and then the concentration of IL-2 in the supernatants was determined by ELISA method.

[3] = test system: NF-κB nuclear translocation in human T lymphocytes; assay: NF-κB nuclear translocation (p65 Western blot of nuclear proteins); format: cell-based; conditions: pretreated 1 hour, 20 ng/ml PMA plus 1 μM ionomycin 120 minutes; FIG. 6A
Procedure: Human T lymphocytes (6×10^6/well) were pretreated with DMY for 1 hour, and subsequently stimulated with 20 ng/ml PMA plus 1 μM ionomycin for 120 minutes. The cells were then harvested and washed with PBS twice. The nuclear proteins of cells were prepared by using NucBuster™ Reagents (Novagen, USA). The washed cells were re-suspended using 60 μl NucBuster™ Reagent for […] of packed cells and processed twice by vortexing for 15 seconds, and followed by incubation on ice for 5 minutes and second vortexing for 15 seconds, and finally centrifuged at 16000 g for 5 minutes. The supernatants containing cytoplasmic protein were harvested, and then the cell pellets were re-suspended in 45 μl of NucBuster Extraction Reagent 2. The same vortexing, icing, and repeated vortexing procedures were repeated once to prepare the nuclear proteins of the cells.
Protein concentrations were determined by using Bio-Rad Protein assay. Equal amounts of nuclear proteins or whole-cell lysates were analyzed by 10% SDS-PAGE. After electrophoresis, the proteins were electro-transferred to the nitrocellulose membranes. After proteins were transferred, the membranes were blocked by 5% dried milk for 60 minutes and then washed three times for 5 min in each washing interval with Tris Buffered Saline with Tween 20 (TBS-T). […]

[4] = test system: p38 kinase phosphorylation; assay: Phosphorylation of MAPKs (Western blot): p38; format: cell-based, human; conditions: PMA plus ionomycin 10 minutes; FIG. 7
Procedure: (§1) For determination of the phosphorylation of mitogen-activated protein kinases expression, the cells were stimulated by 20 ng/ml PMA plus […] ionomycin for 10 minutes. The whole-cell lysates were prepared by lysing the harvested T cells with lysis buffer (50 mM Tris-HCl, pH 7.5, 250 mM NaCl, 5 mM EDTA, 1 mM DTT, 1% Triton, 50 mM NaF, 1 mM sodium orthovanadate, 0.5 mM PMSF and 1× protease inhibitor mix, Roche).
(§2) Protein concentrations were determined by using Bio-Rad Protein assay. Equal amounts of nuclear proteins or whole-cell lysates were analyzed by 10% SDS-PAGE. After electrophoresis, the proteins were electro-transferred to the nitrocellulose membranes. After proteins were transferred, the membranes were blocked by 5% dried milk for 60 minutes and then washed three times for 5 min in each washing interval with TBS-T. The membranes were incubated with corresponding primary antibodies overnight at 4° C. and then washed with three times with TBS-T. Afterwards, the membranes were incubated again with HRP-conjugated secondary antibodies for 60 minutes. The blots were developed using the ECL.

JNK phosphorylation = assay: Phosphorylation of MAPKs (Western blot): JNK; format: cell-based, human; conditions: PMA plus ionomycin 10 minutes; FIG. 7
Procedure: as §1, §2

[5] = test system: c-Fos nuclear localization in HeLa cells; assay: Nuclear localization of c-Fos (immunofluorescence); format: cell-based; conditions: DMY 2 hours then PMA plus ionomycin 2 hours, FIGS. 7 and 8
Procedure: HeLa cells (1×10^5) were seeded on the 6-well plates with cover slips and cultured overnight. The cells were treated with DMY for 2 hours at 37° C and then stimulated with or without 20 ng/ml PMA plus 1 μM ionomycin for another 2 hours. After stimulation, the cells were fixed with 4% paraformaldehyde for 15 minutes at room temperature and permeabilized by 0.1% Triton X-100 and then stained with phalloidin (Invitrogen) for 3 minutes. The cells were incubated with c-Fos antibody for 2 hour after being stained with phalloidin, and the cells were then incubated with FITC-linked secondary antibody for 1 hour after being washed with PBS for 3 times. The slides were dried in air and mounted onto the glass slides.

O=C1c2c(O)cc(O)cc2O[C@H](c2cc(O)c(O)c(O)c2)[C@H]1O [DMY, dihydromyricetin]
T cell proliferation [1]: block T cell proliferation | production of IL-2 [2]: suppress the production of IL-2 | NF-κB nuclear translocation [3]: significantly suppressed | p38 kinase phosphorylation [4]: suppressed | JNK phosphorylation (JNK phosphorylation): suppressed | c-Fos nuclear localization [5]: suppress c-Fos nuclear localization
